Data taken from patent publication US20210040134A1, “COMBINATIONS OF MACROLIDE COMPOUNDS AND IMMUNE CHECKPOINT INHIBITORS” (ISR IMMUNE SYSTEM REGULATION HOLDING AB (PUBL), priority 2018, published 2021).

Columns and labels:
[1] = system: E. coli, S. salivarius, L. casei, B. longum, M. luteus; test: MIC assay, summary over all bacterial strains tested; assay type: cell-based; details: any of the strains tested
Protocol: The bioactivity of macrolide compounds against 4 strains of common gut bacteria (Escherichia coli, Streptococcus salivarius subsp. salivarius, Lactobacillus casei and Bifidobacterium longum subsp. infantis) and common mammalian skin isolate Micrococcus luteus, was assessed using the Minimum Inhibitory Concentration (MIC) assay. Bacterial strains were purchased from DSMZ (Brunswick, Germany) except M. luteus which was obtained from NCIMB, and stored in 20% glycerol at −80° C. Stock solutions (100% DMSO) of positive controls (azithromycin and erythromycin), and of test compounds 1 and 2 were diluted in broth to working stock concentrations of 256 μg/ml (final assay testing concentration range 128 μg/ml to 0.00391 μg/ml). Stock solutions of all other compounds were diluted in broth to working stock concentrations of 128 μg/ml (final assay testing concentration range 64 μg/ml to 0.00195 μg/ml). Bacterial strains were cultivated in appropriate broth in an anaerobic chamber at 37° C., except for M. luteus which was incubated aerobically at 37° C. 18 h cultures were diluted in broth to an OD595 of 0.1 and then further diluted 1:10. In 96-well plates, in duplicate, 200 μl working stock of test compound was transferred to well 1 and serially diluted (1:2) in broth. 100 μl bacterial suspension was aliquoted into each well and mixed thoroughly. Appropriate sterility controls were included and plates were incubated in an anaerobic chamber, or aerobically (M. luteus) at 37° C. for 18 h. The MIC was determined to be the concentration of test compound in the first well with no visible growth.

[2] = Caco-2 bidirectional permeability assay; assay type: in vitro ADME; details: human, Caco-2; B to A permeability divided by A to B permeability
Protocol: (§1) 10 μM Test article was added to the apical (A) surface of Caco-2 cell monolayers (in HBSS buffer with 0.3% DMSO and 5 μM LY at 37 degrees C.) and compound permeation into the basolateral (B) compartment measured following 90 minutes incubation. This was also performed in the reverse direction (basolateral to apical) to investigate active transport. LC-MS/MS is used to quantify levels of both the test and standard control compounds. Efflux ratio was calculated by dividing the B to A permeability by the A to B permeability.
(§2) Drug permeability:Papp=(VA/(Area×time))×([drug]accepter/(([drug]initial,donor)×Dilution Factor)
(§3) The permeability of the compounds of the invention was assessed in a standard caco-2 bidirectional permeability assay (see general methods).

Caco-2 cell monolayers = test: Caco-2 bidirectional permeability assay; assay type: in vitro ADME; details: Caco-2, 10 μM test article, 90 minutes
Protocol: as §1, §2, §3

[3] = Human microsome stability assay; assay type: in vitro ADME; details: pH 7.4, human liver microsomes, read-out: T½
Protocol: Rate of metabolism in microsomes was tested as follows:
Human liver microsomes were diluted with buffer C (0.1 M Potassium Phosphate buffer, 1.0 mM EDTA, pH 7.4) to a concentration of […]. Microsomal stability studies were carried out by adding 30 μL of 1.5 μM compound spiking solution to wells (1.5 μL of 500 μM spiking solution (10 μL of 10 mM DMSO stock solution into 190 μL ACN to eventually generate final test concentration of 1 uM) and 18.75 μL of 20 mg/mL liver microsomes into 479.75 μL of Buffer C). All samples were pre-incubated for approximately 15 minutes at 37° C. Following this, the reaction was initiated by adding 15 μL of the NADPH solution (6 mM) with gentle mixing. Aliquots (40 μL) were removed at 0, 5, 15, 30 and 45 minutes and quenched with ACN containing internal standard (135 μL). Protein was removed by centrifugation (4000 rpm, 15 min) and the sample plate analysed for compound concentration by LC-MS/MS. Half-lives were then calculated by standard methods, comparing the concentration of analyte with the amount originally present.
The metabolic stability of the compounds of the invention was assessed in a standard human microsome stability assay (see general methods).

human TLR2 = molecular target: T1, human TLR2 (Homo sapiens, UniProt O60603); test: TLR2 reporter assay (HEK-293-TLR, SEAP); assay type: cell-based; details: concentrations up to 20 uM
T1 construct: host or cells: recombinant HEK-293-TLR cell lines
Protocol: Samples and controls were tested in duplicate on recombinant HEK-293-TLR cell lines using a cell reporter assay at Invivogen using their standard assay conditions. These cell lines functionally over-express human TLR2 protein as well as a reporter gene which is a secreted alkaline phosphatase (SEAP). The production of this reporter gene is driven by an NFkB inducible promoter. The TLR reporter cell lines activation results are given as optical density values (OD).
20 μl of each test article were used to stimulate the hTLR2 reporter cell lines in a 200 μl of final reaction volume. Samples were tested in duplicate, with at least two concentrations tested—20 uM and 10 uM.
Compounds were tested using a TLR2 reporter assay (see general methods) that measured for stimulation of the TLR2 receptor. Stimulatory effect was measured as an increase in optical density (OD) due to release of secreted alkaline phosphatase (SEAP) and is shown in table 4: […]

T1 sequence (O60603 21-784): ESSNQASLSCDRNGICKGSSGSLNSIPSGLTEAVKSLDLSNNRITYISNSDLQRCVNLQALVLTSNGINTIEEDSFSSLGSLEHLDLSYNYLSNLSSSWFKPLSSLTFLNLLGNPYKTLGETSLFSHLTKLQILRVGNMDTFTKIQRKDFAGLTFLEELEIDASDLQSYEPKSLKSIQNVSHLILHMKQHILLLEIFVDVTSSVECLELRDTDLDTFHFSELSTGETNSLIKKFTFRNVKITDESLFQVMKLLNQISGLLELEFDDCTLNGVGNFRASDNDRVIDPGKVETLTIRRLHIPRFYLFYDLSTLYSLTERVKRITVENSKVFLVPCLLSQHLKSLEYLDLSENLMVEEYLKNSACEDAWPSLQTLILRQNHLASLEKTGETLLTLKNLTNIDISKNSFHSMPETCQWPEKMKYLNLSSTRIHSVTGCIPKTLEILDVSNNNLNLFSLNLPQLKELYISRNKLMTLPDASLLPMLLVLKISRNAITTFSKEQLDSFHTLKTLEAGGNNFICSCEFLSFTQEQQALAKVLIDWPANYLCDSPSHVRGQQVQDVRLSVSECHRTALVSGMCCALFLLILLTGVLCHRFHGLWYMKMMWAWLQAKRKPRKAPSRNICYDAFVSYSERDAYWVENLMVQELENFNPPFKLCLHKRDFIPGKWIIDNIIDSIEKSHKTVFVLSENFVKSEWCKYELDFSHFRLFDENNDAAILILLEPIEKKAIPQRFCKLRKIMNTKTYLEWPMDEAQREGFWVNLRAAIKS

| efflux ratio at 90 minutes, 10 μM [2] | Papp (Caco-2 cell monolayers) | half-life at 1 uM [3] [h] | TLR2 stimulation (in words) (human TLR2) | Structure (SMILES) | antibacterial activity against the bacterial strains tested (in words) [1] |
| --- | --- | --- | --- | --- | --- |
| > 78 | <0.14 × 10^6/cm · s^−1 | 4.08 | little or no stimulation | CC[C@H]1OC(=O)[C@H](C)[C@@H](O[C@H]2C[C@@](C)(OC)[C@@H](O)[C@H](C)O2)[C@H](C)[C@@H](O[C@@H]2O[C@H](C)C[C@H](N(C)C)[C@H]2O)[C@](C)(O)C[C@@H](C)CN(C)[C@H](C)[C@@H](O)[C@]1(C)O [Azithromycin, reference compound] | potent activity |
|  |  |  | little or no stimulation | CC[C@H]1OC(=O)[C@H](C)[C@@H](O[C@H]2CC(N(C)C)[C@H](O)C(C)O2)[C@H](C)[C@@H](O)[C@](C)(O)C[C@@H](C)C(=O)[C@H](C)[C@@H](O)[C@H]1C (some centres unmarked) [Compound 3] | no antibacterial activity |
|  |  |  |  | CC[C@H]1OC(=O)[C@H](C)[C@@H](O[C@H]2CC(N(C)C)[C@H](O)C(C)O2)[C@H](C)[C@@H](O)[C@](C)(O)C[C@@H](C)CN(C)[C@H](C)[C@@H](O)[C@H]1C (some centres unmarked) [Compound 4] | no antibacterial activity |
|  |  |  |  | CC1O[C@@H](O[C@H]2[C@H](C)[C@@H](O)[C@](C)(O)C[C@@H](C)C(=O)[C@H](C)[C@@H](O)[C@@H](C)[C@@H](C3CCC3)OC(=O)[C@@H]2C)CC(N(C)C)[C@@H]1O (some centres unmarked) [Compound 5] | no antibacterial activity |
|  |  | 1.82 |  | CC[C@H]1OC(=O)[C@H](C)[C@@H](O[C@H]2CC(NC)[C@H](O)C(C)O2)[C@H](C)[C@@H](O)[C@](C)(O)C[C@@H](C)C(=O)[C@H](C)[C@@H](O)[C@H]1C (some centres unmarked) [Compound 6] | no antibacterial activity |
|  |  | 0.933 |  | CC[C@H]1OC(=O)[C@H](C)[C@@H](O[C@H]2CC(N(C)C)[C@H](O)C(C)O2)[C@H](C)[C@@H](O)[C@](C)(O)C[C@@H](C)C(O)[C@H](C)[C@@H](O)[C@H]1C (some centres unmarked) [Compound 7] | no antibacterial activity |
|  |  |  |  | CC1O[C@@H](O[C@H]2[C@H](C)[C@@H](O)[C@](C)(O)C[C@@H](C)C(=O)[C@H](C)[C@@H](O)[C@@H](C)[C@@H](C)OC(=O)[C@@H]2C)CC(N(C)C)[C@@H]1O (some centres unmarked) [Compound 8] | no antibacterial activity |
|  |  | 1.67 |  | CC(O)[C@H]1OC(=O)[C@H](C)[C@@H](O[C@H]2C[C@@H](N(C)C)[C@H](O)[C@@H](C)O2)[C@H](C)[C@@H](O)[C@](C)(O)C[C@@H](C)C(=O)[C@H](C)[C@@H](O)[C@H]1C (some centres unmarked) [Compound 9, 14-hydroxy angolosamine erythronolide B] | no antibacterial activity |
|  |  | 0.517 | little or no stimulation | CC[C@H]1OC(=O)[C@H](C)[C@@H](O[C@H]2C[C@@](C)(OC)[C@@H](O)[C@H](C)O2)[C@H](C)[C@@H](O[C@@H]2O[C@H](C)C[C@H](N(C)C)[C@H]2O)[C@](C)(O)C[C@@H](C)C(=O)[C@H](C)[C@@H](O)[C@]1(C)O [Erythromycin, reference compound] | potent activity |

| Structure (SMILES) | efflux ratio at 90 minutes, 10 μM [2] | Papp (Caco-2 cell monolayers) | half-life at 1 uM [3] [h] | TLR2 stimulation (in words) (human TLR2) | antibacterial activity against the bacterial strains tested (in words) [1] |
| --- | --- | --- | --- | --- | --- |
| CC[C@H]1OC(=O)[C@H](C)[C@@H](O[C@H]2CC(N(C)C)[C@H](O)C(C)O2)[C@H](C)[C@@H](O)[C@](C)(O)C[C@@H](C)N(C)C[C@H](C)[C@@H](O)[C@]1(C)O (some centres unmarked) [Compound 17] |  |  |  | stimulated TLR2 at concentrations down to 10 uM |  |
